Assays:
[1] = target: Ribosomal protein S6 kinase alpha-6 (Homo sapiens) (UniProt Q9UK32); settings: Compound concentration 1000.0 nM
[2] = target: T1, cGMP-dependent protein kinase 2 (Homo sapiens) (UniProt Q13237); settings: Compound concentration 1000.0 nM
T1 sequence (whole entry): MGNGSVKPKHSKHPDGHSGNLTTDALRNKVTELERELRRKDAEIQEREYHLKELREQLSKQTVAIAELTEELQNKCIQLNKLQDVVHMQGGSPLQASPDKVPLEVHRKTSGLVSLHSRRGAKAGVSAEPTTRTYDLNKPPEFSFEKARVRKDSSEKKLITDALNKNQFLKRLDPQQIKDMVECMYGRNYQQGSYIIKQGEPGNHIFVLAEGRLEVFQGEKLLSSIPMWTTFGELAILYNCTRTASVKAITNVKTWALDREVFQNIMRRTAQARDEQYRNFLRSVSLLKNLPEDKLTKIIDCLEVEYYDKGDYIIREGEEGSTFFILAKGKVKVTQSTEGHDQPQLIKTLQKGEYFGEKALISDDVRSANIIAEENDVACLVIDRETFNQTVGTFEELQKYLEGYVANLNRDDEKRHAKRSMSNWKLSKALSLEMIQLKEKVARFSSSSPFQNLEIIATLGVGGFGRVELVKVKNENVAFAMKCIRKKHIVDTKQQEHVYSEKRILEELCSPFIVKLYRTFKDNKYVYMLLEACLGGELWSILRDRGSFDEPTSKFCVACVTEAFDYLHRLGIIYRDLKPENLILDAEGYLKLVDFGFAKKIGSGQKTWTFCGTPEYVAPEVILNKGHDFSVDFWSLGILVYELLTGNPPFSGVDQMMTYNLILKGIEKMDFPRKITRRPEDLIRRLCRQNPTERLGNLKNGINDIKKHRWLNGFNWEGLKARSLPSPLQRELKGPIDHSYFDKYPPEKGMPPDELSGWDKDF

[3] = target: Tyrosine-protein kinase JAK2 (Homo sapiens) (UniProt O60674); settings: Compound concentration 1000.0 nM
[4] = target: Myosin-IIIa (Homo sapiens) (UniProt Q8NEV4); settings: Compound concentration 1000.0 nM
[5] = target: Cyclin-dependent kinase 15 (Homo sapiens) (UniProt Q96Q40); settings: Compound concentration 1000.0 nM
[6] = target: Cyclin-dependent kinase 2 (Homo sapiens) (UniProt P24941); settings: Compound concentration 1000.0 nM
[7] = target: Insulin receptor-related protein (Homo sapiens) (UniProt P14616); settings: Compound concentration 1000.0 nM
[8] = target: Serine/threonine-protein kinase 38 (Homo sapiens) (UniProt Q15208); settings: Compound concentration 1000.0 nM
[9] = system: Receptor-type tyrosine-protein kinase FLT3 (Homo sapiens), P36888 [R834Q]; settings: Compound concentration 1000.0 nM
[10] = target: Phosphorylase b kinase regulatory subunit alpha, liver isoform (Homo sapiens) (UniProt P46019); settings: Compound concentration 1000.0 nM
[11] = target: 5-hydroxytryptamine receptor 2B (Homo sapiens) (UniProt P41595); settings: Compound concentration 10.0 uM
[12] = target: Serine/threonine-protein kinase PAK 4 (Homo sapiens) (UniProt O96013); settings: Compound concentration 1000.0 nM
[13] = target: Misshapen-like kinase 1 (Homo sapiens) (UniProt Q8N4C8); settings: Compound concentration 1000.0 nM
[14] = target: Cyclin-dependent kinase 2 homolog (Plasmodium falciparum (isolate 3D7)) (UniProt P61075); settings: Compound concentration 1000.0 nM
[15] = target: Ephrin type-A receptor 2 (Homo sapiens) (UniProt P29317); settings: Compound concentration 1000.0 nM
[16] = system: Tyrosine-protein kinase ABL1 (Homo sapiens), P00519 [Q252H]; settings: Compound concentration 1000.0 nM
[17] = target: SRSF protein kinase 1 (Homo sapiens) (UniProt Q96SB4); settings: Compound concentration 1000.0 nM
[18] = target: Alpha-2A adrenergic receptor (Homo sapiens) (UniProt P08913); settings: Compound concentration 10.0 uM
[19] = target: Wee1-like protein kinase (Homo sapiens) (UniProt P30291); settings: Compound concentration 1000.0 nM
[20] = target: T2, Muscle, skeletal receptor tyrosine-protein kinase (Homo sapiens) (UniProt O15146); settings: Compound concentration 1000.0 nM
T2 sequence (whole entry): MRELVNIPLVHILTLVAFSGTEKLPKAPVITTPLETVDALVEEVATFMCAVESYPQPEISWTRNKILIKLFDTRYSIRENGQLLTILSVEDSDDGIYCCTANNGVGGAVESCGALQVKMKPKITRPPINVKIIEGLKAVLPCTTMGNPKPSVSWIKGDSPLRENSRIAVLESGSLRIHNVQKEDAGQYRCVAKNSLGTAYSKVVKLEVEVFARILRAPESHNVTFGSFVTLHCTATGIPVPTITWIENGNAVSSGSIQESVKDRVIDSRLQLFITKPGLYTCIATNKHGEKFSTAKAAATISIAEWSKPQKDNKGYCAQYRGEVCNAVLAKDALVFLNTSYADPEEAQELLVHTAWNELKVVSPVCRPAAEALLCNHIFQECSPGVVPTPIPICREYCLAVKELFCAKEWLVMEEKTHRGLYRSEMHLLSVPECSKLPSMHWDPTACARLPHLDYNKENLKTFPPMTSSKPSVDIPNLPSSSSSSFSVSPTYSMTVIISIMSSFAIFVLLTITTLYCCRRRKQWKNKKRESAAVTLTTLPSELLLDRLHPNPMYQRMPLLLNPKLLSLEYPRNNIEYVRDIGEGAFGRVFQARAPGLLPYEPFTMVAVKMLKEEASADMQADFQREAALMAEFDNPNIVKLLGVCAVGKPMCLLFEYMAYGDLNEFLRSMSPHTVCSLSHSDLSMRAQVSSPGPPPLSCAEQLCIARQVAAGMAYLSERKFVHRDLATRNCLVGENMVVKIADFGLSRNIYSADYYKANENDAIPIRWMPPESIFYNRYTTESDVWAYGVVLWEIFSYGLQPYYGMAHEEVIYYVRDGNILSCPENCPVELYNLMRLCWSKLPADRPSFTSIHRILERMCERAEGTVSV

[21] = target: Dual specificity mitogen-activated protein kinase kinase 3 (Homo sapiens) (UniProt P46734); settings: Compound concentration 1000.0 nM

Wee1-like protein kinase (Homo sapiens), sequence (P30291 whole entry, looked up): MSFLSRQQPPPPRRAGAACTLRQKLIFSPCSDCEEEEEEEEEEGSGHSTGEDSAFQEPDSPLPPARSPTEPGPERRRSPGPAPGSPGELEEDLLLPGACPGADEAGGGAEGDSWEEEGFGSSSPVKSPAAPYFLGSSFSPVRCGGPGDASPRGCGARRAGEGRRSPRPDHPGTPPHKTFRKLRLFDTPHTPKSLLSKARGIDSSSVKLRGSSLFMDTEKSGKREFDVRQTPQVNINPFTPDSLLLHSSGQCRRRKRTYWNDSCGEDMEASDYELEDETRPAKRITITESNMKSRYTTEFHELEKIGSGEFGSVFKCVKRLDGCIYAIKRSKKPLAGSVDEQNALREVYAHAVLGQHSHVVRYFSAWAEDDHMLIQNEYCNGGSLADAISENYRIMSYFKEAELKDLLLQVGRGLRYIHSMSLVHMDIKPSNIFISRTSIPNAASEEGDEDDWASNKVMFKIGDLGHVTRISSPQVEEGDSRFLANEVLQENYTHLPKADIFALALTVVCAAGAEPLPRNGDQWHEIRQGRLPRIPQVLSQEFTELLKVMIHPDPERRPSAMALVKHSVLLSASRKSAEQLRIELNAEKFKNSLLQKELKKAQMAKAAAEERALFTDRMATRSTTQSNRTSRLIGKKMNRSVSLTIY
Serine/threonine-protein kinase PAK 4 (Homo sapiens), sequence (O96013 whole entry, looked up): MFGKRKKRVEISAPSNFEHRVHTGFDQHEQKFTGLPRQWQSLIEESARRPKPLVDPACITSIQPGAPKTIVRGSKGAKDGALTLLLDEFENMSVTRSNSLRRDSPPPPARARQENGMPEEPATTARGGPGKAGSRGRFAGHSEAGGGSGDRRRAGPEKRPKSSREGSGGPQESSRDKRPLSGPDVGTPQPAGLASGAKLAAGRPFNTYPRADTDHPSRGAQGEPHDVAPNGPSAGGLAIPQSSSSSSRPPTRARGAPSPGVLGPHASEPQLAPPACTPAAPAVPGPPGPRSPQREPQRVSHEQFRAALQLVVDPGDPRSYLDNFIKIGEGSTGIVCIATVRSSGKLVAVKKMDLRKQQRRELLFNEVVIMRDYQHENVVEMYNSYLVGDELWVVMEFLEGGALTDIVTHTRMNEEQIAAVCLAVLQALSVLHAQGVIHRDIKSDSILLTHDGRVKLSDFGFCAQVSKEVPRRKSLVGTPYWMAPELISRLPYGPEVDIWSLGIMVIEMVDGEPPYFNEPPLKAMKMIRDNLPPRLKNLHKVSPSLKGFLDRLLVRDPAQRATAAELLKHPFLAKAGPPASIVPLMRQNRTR
Phosphorylase b kinase regulatory subunit alpha, liver isoform (Homo sapiens), sequence (P46019 whole entry, canonical isoform): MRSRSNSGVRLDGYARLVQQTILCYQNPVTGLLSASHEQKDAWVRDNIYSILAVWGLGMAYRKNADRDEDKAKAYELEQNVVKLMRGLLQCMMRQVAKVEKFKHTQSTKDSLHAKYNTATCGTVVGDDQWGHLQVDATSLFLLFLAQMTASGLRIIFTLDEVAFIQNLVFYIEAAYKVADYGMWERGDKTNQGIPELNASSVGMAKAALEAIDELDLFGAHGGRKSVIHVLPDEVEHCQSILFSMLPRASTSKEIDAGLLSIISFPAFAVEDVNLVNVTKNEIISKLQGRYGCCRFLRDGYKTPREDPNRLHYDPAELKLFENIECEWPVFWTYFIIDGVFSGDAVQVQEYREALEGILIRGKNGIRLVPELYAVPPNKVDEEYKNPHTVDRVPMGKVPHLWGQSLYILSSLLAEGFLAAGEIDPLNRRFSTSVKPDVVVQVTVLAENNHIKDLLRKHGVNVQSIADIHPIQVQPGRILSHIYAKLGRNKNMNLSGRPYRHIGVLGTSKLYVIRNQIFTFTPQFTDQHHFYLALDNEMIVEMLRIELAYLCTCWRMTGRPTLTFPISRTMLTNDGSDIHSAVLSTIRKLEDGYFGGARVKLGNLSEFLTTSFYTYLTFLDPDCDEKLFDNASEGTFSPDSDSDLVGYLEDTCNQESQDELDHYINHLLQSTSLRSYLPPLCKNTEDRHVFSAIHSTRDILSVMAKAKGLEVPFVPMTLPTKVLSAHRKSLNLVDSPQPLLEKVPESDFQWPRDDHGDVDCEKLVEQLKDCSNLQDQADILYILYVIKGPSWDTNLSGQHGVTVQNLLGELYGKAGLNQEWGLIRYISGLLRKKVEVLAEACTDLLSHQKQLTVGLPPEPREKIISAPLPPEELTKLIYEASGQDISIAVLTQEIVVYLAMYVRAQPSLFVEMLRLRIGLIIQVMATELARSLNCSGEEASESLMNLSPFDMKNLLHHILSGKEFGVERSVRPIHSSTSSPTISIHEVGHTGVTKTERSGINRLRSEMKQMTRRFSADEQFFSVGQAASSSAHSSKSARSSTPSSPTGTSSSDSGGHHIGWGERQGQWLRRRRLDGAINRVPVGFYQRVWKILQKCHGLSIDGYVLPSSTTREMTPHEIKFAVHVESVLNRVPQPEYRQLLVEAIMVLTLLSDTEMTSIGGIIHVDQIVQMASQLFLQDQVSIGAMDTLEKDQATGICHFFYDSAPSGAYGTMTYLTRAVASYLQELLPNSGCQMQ
Alpha-2A adrenergic receptor (Homo sapiens), sequence (P08913 whole entry): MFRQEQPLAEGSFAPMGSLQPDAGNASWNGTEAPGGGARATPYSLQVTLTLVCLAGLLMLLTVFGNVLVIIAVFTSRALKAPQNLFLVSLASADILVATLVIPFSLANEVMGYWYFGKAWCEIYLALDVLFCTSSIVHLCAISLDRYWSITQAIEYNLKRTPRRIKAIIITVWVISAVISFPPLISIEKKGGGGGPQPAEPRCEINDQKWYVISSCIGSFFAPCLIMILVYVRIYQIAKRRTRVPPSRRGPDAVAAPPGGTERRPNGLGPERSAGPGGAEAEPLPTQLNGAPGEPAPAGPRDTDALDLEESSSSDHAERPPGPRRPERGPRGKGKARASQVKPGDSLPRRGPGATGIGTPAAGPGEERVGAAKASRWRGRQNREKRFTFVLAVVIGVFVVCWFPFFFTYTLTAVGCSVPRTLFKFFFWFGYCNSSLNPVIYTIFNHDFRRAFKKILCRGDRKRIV
Misshapen-like kinase 1 (Homo sapiens), sequence (Q8N4C8 whole entry, looked up): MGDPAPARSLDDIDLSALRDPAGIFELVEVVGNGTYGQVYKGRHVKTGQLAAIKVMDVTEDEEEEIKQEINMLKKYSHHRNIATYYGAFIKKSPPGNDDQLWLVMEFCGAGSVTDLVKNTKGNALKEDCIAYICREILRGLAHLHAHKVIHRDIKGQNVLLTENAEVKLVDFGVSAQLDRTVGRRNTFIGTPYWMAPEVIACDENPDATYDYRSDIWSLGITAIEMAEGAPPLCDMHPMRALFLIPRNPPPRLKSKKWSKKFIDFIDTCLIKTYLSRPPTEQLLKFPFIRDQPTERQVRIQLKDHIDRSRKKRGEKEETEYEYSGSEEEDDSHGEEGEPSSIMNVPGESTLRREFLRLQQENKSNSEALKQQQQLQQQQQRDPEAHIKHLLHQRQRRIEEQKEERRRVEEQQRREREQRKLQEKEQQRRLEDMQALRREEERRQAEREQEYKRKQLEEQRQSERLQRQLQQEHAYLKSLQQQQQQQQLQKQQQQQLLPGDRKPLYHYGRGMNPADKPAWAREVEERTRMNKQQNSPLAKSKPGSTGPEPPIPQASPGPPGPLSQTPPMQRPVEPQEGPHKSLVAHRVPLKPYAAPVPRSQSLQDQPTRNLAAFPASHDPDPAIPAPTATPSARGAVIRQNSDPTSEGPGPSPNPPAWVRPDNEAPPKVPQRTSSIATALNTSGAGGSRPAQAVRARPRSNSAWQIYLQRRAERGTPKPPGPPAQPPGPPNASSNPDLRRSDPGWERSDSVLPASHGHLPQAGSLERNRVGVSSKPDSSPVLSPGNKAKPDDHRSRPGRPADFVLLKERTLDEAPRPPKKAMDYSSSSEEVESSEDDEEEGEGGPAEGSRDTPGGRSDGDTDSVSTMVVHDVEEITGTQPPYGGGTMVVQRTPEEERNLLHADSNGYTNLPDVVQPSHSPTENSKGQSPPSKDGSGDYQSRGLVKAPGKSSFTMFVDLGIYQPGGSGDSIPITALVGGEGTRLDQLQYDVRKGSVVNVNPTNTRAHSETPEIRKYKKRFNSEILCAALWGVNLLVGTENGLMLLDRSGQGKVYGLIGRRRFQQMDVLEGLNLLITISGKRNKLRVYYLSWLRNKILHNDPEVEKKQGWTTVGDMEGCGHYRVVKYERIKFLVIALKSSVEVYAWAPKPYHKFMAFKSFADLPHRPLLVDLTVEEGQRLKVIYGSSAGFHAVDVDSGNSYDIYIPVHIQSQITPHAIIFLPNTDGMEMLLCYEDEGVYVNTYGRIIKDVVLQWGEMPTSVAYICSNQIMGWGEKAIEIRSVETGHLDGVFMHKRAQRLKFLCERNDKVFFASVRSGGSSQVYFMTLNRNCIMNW
Serine/threonine-protein kinase 38 (Homo sapiens), sequence (Q15208 2-465 limits assumed): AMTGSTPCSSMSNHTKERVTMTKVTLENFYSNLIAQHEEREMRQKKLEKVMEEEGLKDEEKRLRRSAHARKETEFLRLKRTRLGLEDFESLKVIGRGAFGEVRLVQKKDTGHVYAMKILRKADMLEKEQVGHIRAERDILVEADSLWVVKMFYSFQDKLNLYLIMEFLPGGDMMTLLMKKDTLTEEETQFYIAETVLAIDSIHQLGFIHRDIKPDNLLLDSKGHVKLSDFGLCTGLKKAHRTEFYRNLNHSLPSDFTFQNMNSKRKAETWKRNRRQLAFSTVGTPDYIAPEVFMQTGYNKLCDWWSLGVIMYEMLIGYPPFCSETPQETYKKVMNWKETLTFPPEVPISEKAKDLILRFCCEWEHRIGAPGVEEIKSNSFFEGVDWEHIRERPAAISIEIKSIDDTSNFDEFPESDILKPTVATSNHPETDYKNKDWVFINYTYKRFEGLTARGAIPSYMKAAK
Cyclin-dependent kinase 2 homolog (Plasmodium falciparum (isolate 3D7)), sequence (P61075 whole entry): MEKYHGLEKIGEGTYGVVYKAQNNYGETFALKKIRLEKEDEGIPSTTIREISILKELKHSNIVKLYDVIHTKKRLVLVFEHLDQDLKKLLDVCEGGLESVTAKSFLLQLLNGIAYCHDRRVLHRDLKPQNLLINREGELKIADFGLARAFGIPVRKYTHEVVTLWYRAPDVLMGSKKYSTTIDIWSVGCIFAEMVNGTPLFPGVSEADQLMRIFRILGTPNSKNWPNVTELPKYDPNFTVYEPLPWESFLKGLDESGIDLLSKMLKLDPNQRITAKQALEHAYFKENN

| Compound | residual activity [1] [%] | residual activity [2] [%] | residual activity [3] [%] | residual activity [4] [%] | residual activity [5] [%] | residual activity [6] [%] | residual activity [7] [%] | residual activity [8] [%] | residual activity [9] [%] | residual activity [10] [%] | inhibition [11] [%] | residual activity [12] [%] | residual activity [13] [%] | residual activity [14] [%] | residual activity [15] [%] | residual activity [16] [%] | residual activity [17] [%] | inhibition [18] [%] | residual activity [19] [%] | residual activity [20] [%] | other results |
| --- | --- | --- | --- | --- | --- | --- | --- | --- | --- | --- | --- | --- | --- | --- | --- | --- | --- | --- | --- | --- | --- |
| CCc1ccccc1C(=O)Nc1n[nH]c2c(C)c(F)c(C3C(C#N)=C(C)N(C)C(C)=C3C#N)cc12 [BAY-3827] | 2.9 | 100 | 100 | 68 | 95 | 100 | 99 | 100 | 89 | 81 | 32.5 | 100 | 99 | 100 | 61 | 99 | 89 | 5.01 | 100 | 83 | residual activity [21]: 97% |
| CC1=C(C#N)C(c2ccc3c(c2)c(NC(=O)c2ccccc2C)nn3C)C(C#N)=C(C)N1 [BAY-974] | 100 | 72 | 77 | 86 | 100 | 86 | 100 | 96 | 90 | 89 | 11.4 | 100 | 96 | 84 | 82 | 73 | 89 | 14.4 | 100 | 98 | residual activity [21]: 91% |

Source: ChEMBL document CHEMBL4507319 (2021)
